Test results taken from paper PMC7176092, “Development of the first in vivo GPR17 ligand through an iterative drug discovery pipeline: A novel disease-modifying strategy for multiple sclerosis” (PLoS ONE, 2020).
Values joined by “and” are separate entries in the source; they are usually repeats but may differ in a detail not shown here. Identical values can stand only once. Like-named read-outs stand apart in the source and are kept apart here.

Key:
CysLT2 = target: T1, CysLT2 (Homo sapiens, UniProt Q9NS75); test: Binding assay CysLT2; details: 100 nM
T1 construct: Eurofins Cerep (external service)
T1 sequence (Q9NS75 1-346): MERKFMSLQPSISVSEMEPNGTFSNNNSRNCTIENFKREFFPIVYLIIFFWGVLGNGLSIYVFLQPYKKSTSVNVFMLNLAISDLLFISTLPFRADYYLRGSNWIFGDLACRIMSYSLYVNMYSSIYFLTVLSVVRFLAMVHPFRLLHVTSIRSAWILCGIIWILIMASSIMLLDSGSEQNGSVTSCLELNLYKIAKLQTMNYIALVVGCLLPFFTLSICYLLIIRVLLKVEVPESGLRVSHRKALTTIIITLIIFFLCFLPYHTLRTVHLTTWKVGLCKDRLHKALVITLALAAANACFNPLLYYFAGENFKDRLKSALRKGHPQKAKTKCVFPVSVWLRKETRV

ADR1D = target: T2, ADR1D (Homo sapiens, UniProt P25100); test: Binding assay ADR1D; details: 100 nM
T2 construct: Eurofins Cerep (external service)
T2 sequence (P25100 1-572): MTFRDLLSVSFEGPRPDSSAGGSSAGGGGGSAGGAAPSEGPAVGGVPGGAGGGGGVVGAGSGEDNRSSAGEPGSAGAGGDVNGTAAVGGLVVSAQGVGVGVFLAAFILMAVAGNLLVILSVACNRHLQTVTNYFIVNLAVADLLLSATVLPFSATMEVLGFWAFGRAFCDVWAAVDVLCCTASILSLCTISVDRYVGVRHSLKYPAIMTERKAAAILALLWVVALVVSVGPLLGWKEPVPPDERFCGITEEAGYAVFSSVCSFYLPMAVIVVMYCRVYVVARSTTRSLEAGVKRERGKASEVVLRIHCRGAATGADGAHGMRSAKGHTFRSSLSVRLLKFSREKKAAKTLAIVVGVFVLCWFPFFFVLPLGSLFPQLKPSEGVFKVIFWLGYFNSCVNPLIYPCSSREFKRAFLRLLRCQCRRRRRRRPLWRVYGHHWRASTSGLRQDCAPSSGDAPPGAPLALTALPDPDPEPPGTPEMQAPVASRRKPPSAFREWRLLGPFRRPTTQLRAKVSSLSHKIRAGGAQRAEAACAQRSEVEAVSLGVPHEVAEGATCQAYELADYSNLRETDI

CCR3 = target: T3, CCR3 (Homo sapiens, UniProt P51677); test: Cellular functional assay CCR3
T3 sequence (P51677 1-355): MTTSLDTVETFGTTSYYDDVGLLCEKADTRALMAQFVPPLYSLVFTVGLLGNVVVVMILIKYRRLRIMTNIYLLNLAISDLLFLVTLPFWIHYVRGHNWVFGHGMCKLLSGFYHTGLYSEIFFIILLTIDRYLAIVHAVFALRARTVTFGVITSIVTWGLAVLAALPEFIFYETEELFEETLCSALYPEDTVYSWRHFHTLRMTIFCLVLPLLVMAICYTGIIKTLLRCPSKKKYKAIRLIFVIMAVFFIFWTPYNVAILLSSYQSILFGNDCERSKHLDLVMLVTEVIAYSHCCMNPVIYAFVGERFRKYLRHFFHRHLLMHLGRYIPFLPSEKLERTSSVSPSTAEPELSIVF

OPC-DRG co-cultures = test: In vitro myelination assay; assay type: cell-based, rat OPCs, mouse DRG; details: 10 nM; CTRL 100%; mean ± S.E.M.
Procedure: OPC-DRG co-cultures were prepared according to a previously described protocol.
DRG explants from E14.5 mice were directly put in culture after being plucked off from embryo spinal cords. Then, they were grown in Neurobasal medium (Life Technologies) in presence of 100 ng/ml nerve growth factor (NGF, Sigma-Aldrich), and in presence of 10 μM fluorodeoxyuridine (FUDR, Sigma-Aldrich) in order to remove all non-neuronal cells.
Purified primary rat OPCs were obtained from mixed glial cultures by orbital shaking for 3 hours. […]
At day 15, OPC/DRG co-cultures treated with either the selected compounds or the vehicle were fixed and treated with rat anti-MBP (Millipore), mouse anti-SMI 31 and mouse anti-SMI 32 (Cell Signaling), followed by the secondary goat anti-rat/-mouse antibody, conjugated to Alexa Fluor 555 or Alexa Fluor 488 (Life Technologies). The quantification of myelin segments was performed following a previously described protocol with ZEISS LSM Image Browser by acquiring 6 random fields of 4–5 coverslips for each experimental condition. […] The amount of myelin per axon (myelination index) was calculated as the ratio between the white pixels area and the green pixels area. […]

[1] = mean of 2, read-out: % Of control specific binding, Mean
[2] = read-out: % Inhibition of control specific binding
[3] = single replicates 1 and 2, 0.1 µM

remaining activity at 0.1 µM (CysLT2; [1]): 101%
inhibition at 0.1 µM (CysLT2; [2]): -1%
% Of control specific binding (CysLT2; [3]): 103.4%
remaining activity at 0.1 µM (CysLT2; single replicates 1 and 2, read-out: % Of control specific binding): 97.9%
remaining activity at 0.1 µM (ADR1D; [1]): 101%
inhibition at 0.1 µM (ADR1D; [2]): -1%
% Of control specific binding (ADR1D; [3]): 90.2% and 111.5%
Agonist Response (% of Control) (CCR3; antagonist effect, 100 nM, single replicates 1st and 2nd, 0.1 µM): 121.2%
inhibition at 0.1 µM (CCR3; read-out: % Inhibition of control agonist response): -0.9%
activity at 0.1 µM (CCR3; read-out: Agonist Response (% of Control), Mean, antagonist effect, 100 nM, mean of 2): 118%
activity at 0.1 µM (CCR3; read-out: Agonist Response (% of Control), antagonist effect, 100 nM, single replicates 1st and 2nd): 116%
Compound: Cc1ccc(-c2nnc(SCC(=O)Nc3nccs3)[nH]2)cc1 [Compound 9]
Myelination Index (OPC-DRG co-cultures): 155.0 ± 12.08%
